Where “and” joins values, the source holds several entries; their conditions need not be identical. Equal entries are not always repeated.
Assays:
[1] = target: T1, adenosine receptor 2A (A2A) (Homo sapiens, UniProt P29274); experiment: Functional antagonist assay monitoring cAMP (CEREP); type: cell-based; conditions: concentration-response up to 10 μM; read-out: IC50, cAMP;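 further: eight-point concentration-response from 0 to 10 µM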
T1 construct: CEREP (Poitiers, France), paid service
Method: (§1) Competition binding assay using radioactive ligands and functional assay monitoring cAMP were carried out as a paid service provided by CEREP (Poitiers, France). The functional assays monitoring Ca^2+ flux were carried out as a paid service provided by DiscoveRx (Carlsbad, CA).

[2] = target: T1, adenosine receptor 2A (A2A); experiment: Competition binding assay using radioactive ligands (CEREP); conditions: fixed compound concentration of 10 μM;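 further: compounds screened at a single fixed 10 µM concentration for displacement of a radioligand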
Method: as §1

[3] = target: T1, adenosine receptor 2A (A2A); experiment: Functional assay monitoring Ca2+ flux (DiscoveRx); type: cell-based; conditions: read-out: IC50, Ca2+, M;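 further: concentration-response testing with 10 µM as highest concentration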
Method: as §1

A2A = conditions: cited from earlier work

T1 sequence (P29274 whole entry): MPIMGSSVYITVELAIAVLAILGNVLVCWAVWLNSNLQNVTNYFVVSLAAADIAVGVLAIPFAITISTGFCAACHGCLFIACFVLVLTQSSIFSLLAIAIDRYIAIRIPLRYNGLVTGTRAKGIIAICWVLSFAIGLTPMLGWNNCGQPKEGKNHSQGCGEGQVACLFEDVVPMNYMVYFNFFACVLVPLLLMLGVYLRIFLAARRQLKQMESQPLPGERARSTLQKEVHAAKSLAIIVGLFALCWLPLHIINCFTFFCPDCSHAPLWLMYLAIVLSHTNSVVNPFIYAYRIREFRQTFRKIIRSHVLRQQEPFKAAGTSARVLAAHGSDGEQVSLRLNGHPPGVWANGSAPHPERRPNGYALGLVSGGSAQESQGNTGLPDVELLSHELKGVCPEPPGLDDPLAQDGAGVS

| Compound | inhibition at up to 10 µM [1] [%] | inhibition at 10 µM [2] [%] | inhibition [3] [%] | IC50 (A2A) |
| --- | --- | --- | --- | --- |
| CC(=O)CCCCn1c(=O)c2c(ncn2C)n(C)c1=O [Pentoxifylline] | < 50 | < 50 | < 50 | ~10 µM |
| CCOC(=O)C1=C(C)NC(c2ccccc2)=C(C(=O)OCc2ccccc2)C1C#Cc1ccccc1 (centres unmarked) [MRS1191] |  |  |  | ~10 µM and 10 µM |
